Entries after “also recorded” stand apart in the source; their conditions may differ. Like-named read-outs stand apart in the source and are kept apart here.
Columns and labels:
C3H/10T1/2 cells = test: Osteoblast differentiation assay (ODA): purmorphamine-induced osteogenesis, alkaline phosphatase luminescence readout; type: cell-based, mouse; parameters: key to Osteogenesis IC50: Compounds are marked inactive when no inhibition was observed at the highest test concentration of 30 µM; conditions: for Inhibition of Hh-/purmorphamine-induced osteogenesis (in words): C3H/10T1/2 cells; for IC50: Mus musculus, C3H 10T1/2
Method: Supplementary Table S7. Inhibition of osteogenesis assay. C3H10T1/2 cells were incubated with 1.5 µM purmorphamine and compounds or DMSO as a control for 96 h. The activity of alkaline phosphatase was assessed by means of a luminescence readout. Values for cells, which were treated with DMSO and purmorphamine, were set to 100% and data were measured in […]
concentration of 30 µM. All data are mean values of three independent experiments (n = 3) ± […]
Compound Osteogenesis IC50
(1 picture or pasted object on this page, not shown here)
NIH/3T3 cells were obtained from DSMZ, Germany (DSMZ ACC 59) and were cultured in DMEM (high glucose) supplemented with 10% heat-inactivated FCS, 2 mM L -glutamine and 1 mM sodium pyruvate. Shh -LIGHT2 cells (NIH/3T3 cells stably transfected with a Gli-responsive firefly luciferase reporter plasmid and a pRL-TK constituitive Renilla luciferase expression vector)[4] were cultured in the same culturing medium supplemented with 400 μg ml −1 G418 and 150 μg ml −1 Zeocin as selecting agents. The murine osteoblasts C3H/10T1/2 (ATCC CCL-226) were obtained from ATCC, USA and were cultured in DMEM (high glucose) supplemented with 10% heat-inactivated FCS, 6 mM L -glutamine, 1 mM sodium pyruvate. HEK293T cells (ATCC, England) were grown in DMEM containing 10% FBS, 100 U ml −1 penicillin and 0.1 mg ml −1 streptomycin. All cell lines were maintained at 37 °C and 5% CO 2 in a humidified atmosphere. All the cell lines were regularly assayed for mycoplasma and were confirmed to be mycoplasma-free. Transfection of DNA constructs and siRNAs were performed using FuGENE HD (Promega), Lipofectamine® LTX (Invitrogen) and DharmaFECT™ (GE Healthcare) transfection reagent according to the manufacturer’s […]
Osteoblast differentiation assay
The osteoblast differentiation assay was performed by the Compound Management and Screening Center (COMAS) in Dortmund, Germany. C3H/10T1/2 cells were seeded (800 per well) in white 384-well plates or (6000 per well) in 96-well plates. After incubation for 16 h, compounds or DMSO were added to the cells using the acoustic nanoliter dispenser ECHO 520 (Labcyte) and osteogenesis was induced with 1.5 µM purmorphamine. Plates were incubated for 96 h at 37 °C and 5% CO2. Alkaline phosphatase activity was measured by replacing the medium with osteogenesis-lysis buffer (lysis buffer: 100 mM Tris pH 9.5, 250 mM NaCl, 25 mM MgCl2, 1% Triton X-100, sterile filtered) containing 1:100 chemiluminescent substrate CDP-Star® (Promega, 384-well plates: 35 µL, 96-well plates: 50 µL) for one hour in the dark at 25 °C. In 384-well plates, the luminescence was monitored using the Paradigm plate reader (Molecular Devices, USA), whereas Spark plate reader (Tecan, Austria) was used to measure luminescence in 96-well plates. Dose-response analyses were performed for all hit compounds […]
using a three-fold dilution series starting from a concentration of 30 μM. Half-maximal inhibitory concentrations (IC50) were calculated using the Quattro software suite (Quattro Research, Planegg, Germany) or GraphPad Prism 7 (GraphPad, USA).
The effect of test compounds on the viability of C3H/10T1/2 cells was determined by CellTiter-Glo Luminescence cell viability assay (Promega). Cells were treated as described for the osteogenesis assay prior to addition of the CellTiter-Glo® reagent according to manufacturer’s protocol. Compounds causing at least a 50% reduction in the osteogenesis assay and retaining cell viability of at least 80% were considered as hits. Dose-response analyses were performed for all hit compounds using a three-fold dilution series starting from a concentration of 30 μM. Half-maximal inhibitory concentrations (IC50) were calculated using the Quattro software suite (Quattro Research GmbH). […]

[1] = biological target: T1, RHOGDI1-mediated extraction of RAC1 (Homo sapiens, UniProt P52565); test: Liposome sedimentation assay: displacement of prenylated GDP-bound RAC1 from liposomes by GST-RHOGDI1; type: biochemical; conditions: 50 μM compound
T1 construct: made in house; host or cells: RHOGDI1: E. coli; prenylated RAC1: insect cells (TNAO38)
T1 sequence (P52565 1-204): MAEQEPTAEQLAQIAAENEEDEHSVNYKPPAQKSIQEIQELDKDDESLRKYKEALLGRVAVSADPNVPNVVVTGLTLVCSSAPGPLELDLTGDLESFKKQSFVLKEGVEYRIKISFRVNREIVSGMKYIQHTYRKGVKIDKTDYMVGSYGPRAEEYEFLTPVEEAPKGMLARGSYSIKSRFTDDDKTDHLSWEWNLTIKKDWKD
Method: Liposome sedimentation assay
Liposomes were prepared by self-assembly of the lipids (500 μg) containing 20% (w/w) phosphatidylethanolamine, 45% (w/w) phosphatidylcholine, 20% (w/w) phosphatidylserine, 10% (w/w) cholesterol, and 5% (w/w) phosphatidylinositol 4,5-bisphosphate. Liposome assays were performed by mixing, sonicating (20 s with minimal power, 50% off and 50% on) and extruding ([…] filter) the lipids in 300 µl of a buffer, containing 20 mM HEPES-NaOH pH 7.4, 50 mM NaCl, 3 mM DTT, 5 mM MgCl2. 1 µM GerGer-RAC1-GDP was added to the liposomes and incubated for 20 min on ice. 1.5 µM GST‐RHOGDI-1 and the compounds or DMSO were added to the liposome-GerGer-RAC1-GDP complex prior to incubation on ice for 30 min. The samples were centrifuged at 20,000 x g for 30 min at 4 °C. The resulting pellet and supernatant fractions were collected and analyzed by immunoblotting. 10 µl of each sample were loaded on a SDS-PAGE gel for Western blotting. Specific antibodies were used to visualize RAC1, CDC42 and RHOA.
10 µM of GerGer-RAC1-GDP was added to liposomes suspended in flotation assay buffer containing 20 mM HEPES-NaOH pH 7.4, 50 mM M NaCl, 3 mM DTT, 5 mM MgCl2, and incubated for 20 min on ice. The liposomes were prepared by using self-assembling the lipids (500 μg lipids in 300 µl buffer), containing 15% (w/w) phosphatidylethanolamine, 0.5% (w/w) NBD-PE (N-(7-nitrobenz-2-oxa-1,3-diazol-4-yl)-1,2-dihexadecanoyl-sn-glycero-3-phosphoethanolamine, triethylammonium salt), 45% (w/w) phosphatidylcholine, 20% (w/w) phosphatidylserine, 10% (w/w)cholesterol, and 5% (w/w) phosphatidylinositol 4,5-bisphosphate. 15 µM of GST‐RHOGDI-1 and compounds or DMSO was added to liposome-GerGer-RAC1-GDP complex and samples were further incubated on ice for 30 min. The samples were added to 30% (w/v) sucrose solution. […]
The resulting samples were centrifuged at 140000 x g for 1 h at 4 °C. The upper liposome‐ containing phase (detected by fluorescent NDB‐PE) was collected and analyzed by […]

[2] = Table S9, purmorphamine-induced, mean, n=3 ± SD, read-out: ODA IC50 ± SD

Compound | Inhibition of Hh-/purmorphamine-induced osteogenesis (in words) (C3H/10T1/2 cells) | IC50 (C3H/10T1/2 cells; [2]) [µM] | Inhibition of RHOGDI1-mediated extraction of RAC1 from liposomes (in words) [1] | Osteogenesis IC50 (C3H/10T1/2 cells; Table S7, 1.5 µM purmorphamine, 96 h, mean ± SD, n=3, highest test concentration 30 µM) | IC50 (C3H/10T1/2 cells; Table S7, 1.5 µM purmorphamine, 96 h, mean ± SD, n=3, highest test concentration 30 µM, read-out: Osteogenesis IC50) [µM]
COC(=O)C1(C(CC(=O)c2cccnc2)c2ccccc2)N=C(c2ccc(Br)cc2)C2C(=O)N(C)C(=O)C21 (stereo not drawn) [7l] | most potently inhibited | 1.52 ± 0.22 | inhibited | – | –
COC(=O)C1(CCC(=O)c2ccc(F)cc2)N=C(c2ccc(Br)cc2)C2C(=O)N(C)C(=O)C21 (stereo not drawn) [7d] | abolished activity; also recorded: did not inhibit osteogenesis | – | did not inhibit extraction of RAC1 | inactive | –
COC(=O)C1(C(CC(=O)c2ccccc2)c2ccccc2)N=C(c2ccc(Br)cc2)C2C(=O)N(C)C(=O)C21 (stereo not drawn) [7a] | – | 1.3 ± 0.3 | inhibits the extraction of RAC1 | – | 1.5 ± 0.2

Reference: paper PMC9313812, “The Pseudo‐Natural Product Rhonin Targets RHOGDI” (Angewandte Chemie (International Ed. in English), 2022)
